Values quoted from earlier work as cited in patent US20020128313A1, “Method for improved pregnancy management and related composition” (priority 2000, published 2002).

Tested on: sows
[1] = 5 mg in extended boar sperm (Gil et al., 1998)

CCCCC[C@H](O)/C=C/[C@@H]1[C@@H](C/C=C\CCCC(=O)O)[C@@H](O)C[C@H]1O [PGF2α, Prostaglandin F2α]
Likelihood of a sow to become pregnant [1]: increased the likelihood of a sow to become pregnant | Number of piglets born alive [1]: increased number of piglets born alive | Effect on seasonal infertility in sows (Pena et al., 1998): helped alleviate the effect of seasonal infertility
